“Also recorded” adds a separate entry of the source. Ends that are not written are not given here.
Experiments:
FV-810 [1] = target: T1, FV-810 (Homo sapiens, UniProt P12259, DEL839-1519); assay: Clotting assay, FV-deficient plasma supplemented with FV-810 (FV-DT); format: biochemical; settings: for inhibition of clotting activity of FV-810 (FV-DT): FV-deficient plasma, FIG. 8A: 0.25 nM FV-810, peptides at 5 μM
T1 construct: amino acids 1-28 are a signal peptide that is cleaved and numbering begins at residue 29; made in house
T1 sequence (P12259 with tags, fused parts or gaps DEL839-1519): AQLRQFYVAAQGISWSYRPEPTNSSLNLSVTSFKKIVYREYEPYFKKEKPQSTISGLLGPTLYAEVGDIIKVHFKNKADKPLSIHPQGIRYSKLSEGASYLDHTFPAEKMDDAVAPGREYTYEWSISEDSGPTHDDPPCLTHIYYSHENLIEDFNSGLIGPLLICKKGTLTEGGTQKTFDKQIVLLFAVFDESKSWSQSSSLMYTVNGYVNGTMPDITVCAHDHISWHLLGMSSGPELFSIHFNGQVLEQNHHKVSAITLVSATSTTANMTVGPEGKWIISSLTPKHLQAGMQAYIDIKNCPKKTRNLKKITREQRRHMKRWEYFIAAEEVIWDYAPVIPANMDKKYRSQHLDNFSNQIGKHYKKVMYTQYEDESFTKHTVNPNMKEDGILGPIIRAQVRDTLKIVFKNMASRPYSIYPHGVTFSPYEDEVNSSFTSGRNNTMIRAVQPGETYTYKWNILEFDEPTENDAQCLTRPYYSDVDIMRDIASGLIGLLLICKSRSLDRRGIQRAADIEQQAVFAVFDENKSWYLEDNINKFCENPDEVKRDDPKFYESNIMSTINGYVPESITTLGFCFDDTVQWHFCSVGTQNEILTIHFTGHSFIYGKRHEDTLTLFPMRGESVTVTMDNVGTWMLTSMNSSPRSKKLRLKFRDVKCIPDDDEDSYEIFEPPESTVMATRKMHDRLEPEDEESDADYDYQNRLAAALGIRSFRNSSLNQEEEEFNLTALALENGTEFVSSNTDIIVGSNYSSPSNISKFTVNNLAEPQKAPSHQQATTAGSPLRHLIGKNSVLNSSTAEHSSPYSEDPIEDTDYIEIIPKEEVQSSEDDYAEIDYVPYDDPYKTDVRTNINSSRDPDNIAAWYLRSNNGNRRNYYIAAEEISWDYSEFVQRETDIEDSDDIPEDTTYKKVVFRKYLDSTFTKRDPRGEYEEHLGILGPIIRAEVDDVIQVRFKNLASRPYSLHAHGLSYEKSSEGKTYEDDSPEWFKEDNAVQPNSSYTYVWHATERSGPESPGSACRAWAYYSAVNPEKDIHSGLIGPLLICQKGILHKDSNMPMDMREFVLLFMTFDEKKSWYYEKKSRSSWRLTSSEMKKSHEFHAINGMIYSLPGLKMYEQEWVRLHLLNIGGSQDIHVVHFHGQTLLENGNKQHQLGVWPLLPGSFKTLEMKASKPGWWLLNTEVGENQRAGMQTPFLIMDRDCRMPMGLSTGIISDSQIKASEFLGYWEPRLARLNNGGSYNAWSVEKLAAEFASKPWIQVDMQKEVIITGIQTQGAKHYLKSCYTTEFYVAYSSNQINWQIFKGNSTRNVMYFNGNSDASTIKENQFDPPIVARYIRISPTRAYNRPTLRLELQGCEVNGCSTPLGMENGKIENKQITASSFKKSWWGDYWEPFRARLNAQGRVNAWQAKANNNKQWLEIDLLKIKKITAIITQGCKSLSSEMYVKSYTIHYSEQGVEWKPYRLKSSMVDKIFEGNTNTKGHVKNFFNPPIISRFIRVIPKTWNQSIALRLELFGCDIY
Procedure: (§1) Residual clotting activity of Factor V variants was determined by prothrombin time-based clotting assays. Factor V variants were incubated with either the FVBR or s46 peptide, after which the mixtures were mixed with Factor V deficient plasma and clotting times were measured. Where indicated, the Factor V variants were activated by pre-incubation with thrombin prior to addition of the peptides.
(§2) FV derivatives (500 nM) were prepared in assay buffer. Where noted, FV derivatives were pretreated with 10 nM thrombin for 15 minutes at 37° C., followed by the addition of 15 nM hirudin. Samples were diluted to 0.25 nM in assay buffer with 0.1% BSA, and the specific clotting activity was measured in FV-deficient plasma (George King Bio-Medical, Overland Park, Kans.) with TriniCLOT PT Excel (Tcoag, Wicklow, Ireland) as described (Camire et al. (1998) Biochemistry 37:11896-11906). The data are presented as the means±S.D.

FV-810^QQ = target: T2, FV-810^QQ (Homo sapiens, UniProt P12259, DEL839-1519/R1573Q/R737Q); assay: Clotting assay with FV-810^QQ; format: biochemical
T2 construct: amino acids 1-28 are a signal peptide that is cleaved and numbering begins at residue 29; made in house
T2 sequence (P12259 with tags, fused parts or gaps R737Q/DEL839-1519/R1573Q): as the sequence (P12259 with tags, fused parts or gaps DEL839-1519) above, with R709Q, R864Q counted along it
Procedure: as §1, §2

plasma-derived Factor V = target: T3, plasma-derived Factor V (Homo sapiens, UniProt P12259); assay: Proteolytic activation of Factor V by thrombin (SDS-PAGE); format: biochemical; settings: presence of FVBR
T3 construct: from tissue; host or cells: plasma
T3 sequence (P12259 29-2224): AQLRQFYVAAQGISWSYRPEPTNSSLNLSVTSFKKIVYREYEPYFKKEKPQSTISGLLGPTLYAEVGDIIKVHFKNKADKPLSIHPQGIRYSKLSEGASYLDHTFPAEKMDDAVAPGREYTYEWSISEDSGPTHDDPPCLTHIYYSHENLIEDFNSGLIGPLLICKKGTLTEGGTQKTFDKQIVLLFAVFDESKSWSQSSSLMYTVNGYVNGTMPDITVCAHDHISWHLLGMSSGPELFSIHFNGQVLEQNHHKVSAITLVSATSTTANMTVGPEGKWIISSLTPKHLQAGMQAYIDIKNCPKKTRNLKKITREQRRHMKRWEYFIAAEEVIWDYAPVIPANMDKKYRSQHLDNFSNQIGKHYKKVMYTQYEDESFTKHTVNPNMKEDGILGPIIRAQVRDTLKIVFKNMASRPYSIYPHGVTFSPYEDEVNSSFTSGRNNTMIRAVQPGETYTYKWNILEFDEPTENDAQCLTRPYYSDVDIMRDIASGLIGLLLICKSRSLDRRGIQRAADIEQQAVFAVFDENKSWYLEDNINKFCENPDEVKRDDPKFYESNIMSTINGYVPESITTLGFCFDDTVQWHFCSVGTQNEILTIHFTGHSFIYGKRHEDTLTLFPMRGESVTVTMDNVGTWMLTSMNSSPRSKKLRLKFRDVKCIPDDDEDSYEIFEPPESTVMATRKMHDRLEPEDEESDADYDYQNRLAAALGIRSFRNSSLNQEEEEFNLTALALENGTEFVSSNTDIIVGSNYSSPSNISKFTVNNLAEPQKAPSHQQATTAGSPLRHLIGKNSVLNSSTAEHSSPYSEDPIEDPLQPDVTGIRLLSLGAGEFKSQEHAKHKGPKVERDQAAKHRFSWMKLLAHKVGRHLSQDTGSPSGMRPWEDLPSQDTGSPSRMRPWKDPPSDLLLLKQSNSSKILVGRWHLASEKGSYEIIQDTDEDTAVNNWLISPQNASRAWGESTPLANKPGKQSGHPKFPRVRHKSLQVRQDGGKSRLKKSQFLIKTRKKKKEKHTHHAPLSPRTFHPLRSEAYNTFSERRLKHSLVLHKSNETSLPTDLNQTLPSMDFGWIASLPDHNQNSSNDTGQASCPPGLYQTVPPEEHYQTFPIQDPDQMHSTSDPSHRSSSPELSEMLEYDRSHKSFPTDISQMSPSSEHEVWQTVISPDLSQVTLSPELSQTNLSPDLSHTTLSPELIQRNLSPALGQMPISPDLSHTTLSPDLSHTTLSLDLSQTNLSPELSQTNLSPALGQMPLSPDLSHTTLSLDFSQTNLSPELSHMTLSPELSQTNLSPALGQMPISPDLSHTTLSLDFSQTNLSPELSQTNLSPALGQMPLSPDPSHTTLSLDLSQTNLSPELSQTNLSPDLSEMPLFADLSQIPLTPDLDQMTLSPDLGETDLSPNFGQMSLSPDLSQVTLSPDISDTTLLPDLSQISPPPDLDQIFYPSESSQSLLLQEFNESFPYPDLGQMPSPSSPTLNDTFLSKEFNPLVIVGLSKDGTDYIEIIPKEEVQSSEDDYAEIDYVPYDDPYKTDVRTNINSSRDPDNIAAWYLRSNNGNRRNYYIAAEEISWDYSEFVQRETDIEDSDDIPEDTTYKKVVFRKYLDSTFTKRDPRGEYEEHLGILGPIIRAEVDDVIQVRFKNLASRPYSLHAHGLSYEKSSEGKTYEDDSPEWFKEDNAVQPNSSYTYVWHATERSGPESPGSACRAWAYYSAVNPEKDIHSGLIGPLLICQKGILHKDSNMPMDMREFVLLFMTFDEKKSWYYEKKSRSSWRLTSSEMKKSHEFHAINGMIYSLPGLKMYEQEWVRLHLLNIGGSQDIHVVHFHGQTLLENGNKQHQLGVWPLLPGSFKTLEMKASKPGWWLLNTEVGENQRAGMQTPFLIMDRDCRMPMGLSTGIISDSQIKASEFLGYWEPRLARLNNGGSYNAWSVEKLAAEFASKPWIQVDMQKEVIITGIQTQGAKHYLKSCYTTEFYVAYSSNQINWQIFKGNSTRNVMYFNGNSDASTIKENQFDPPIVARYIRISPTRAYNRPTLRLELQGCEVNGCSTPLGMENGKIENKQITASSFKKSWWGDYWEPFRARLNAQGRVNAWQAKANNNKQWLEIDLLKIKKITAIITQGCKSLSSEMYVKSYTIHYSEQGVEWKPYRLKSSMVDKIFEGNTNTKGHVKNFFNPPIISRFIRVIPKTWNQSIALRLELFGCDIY
Procedure: Plasma-derived Factor V was incubated with thrombin in the presence or absence of FVBR peptide. Samples were removed and quenched in sample buffer at the indicated times, and the cleavage products were analyzed by SDS-PAGE and Coomassie Brilliant Blue staining.

FXa/FV-DT [2] = target: T4, FXa/FV-DT (Homo sapiens, UniProt P12259, DEL839-1519); assay: Prothrombin activation assay, prothrombinase containing FV-810 (FV-DT); format: biochemical; settings: peptide titrated, 1.4 μM prothrombin, 50 μM PCPS, 25° C.
T4 construct: amino acids 1-28 are a signal peptide that is cleaved and numbering begins at residue 29; made in house
T4 sequence (P12259 with tags, fused parts or gaps DEL839-1519): as the sequence (P12259 with tags, fused parts or gaps DEL839-1519) above
Procedure: Steady-state initial velocities of prothrombin cleavage were determined discontinuously at 25° C. by measuring the initial rate of thrombin formation. Reaction mixtures contained liposomes (75:25, PC:PS), prothrombin, the indicated Factor V variants, and the Factor V peptides FVBR or s46. The reactions were initiated by adding Factor Xa, and thrombin generation was determined at multiple time points by monitoring the cleavage of the chromogenic thrombin substrate S-2238.
Steady-state initial velocities of prothrombin cleavage were determined discontinuously at 25° C. as described (Camire, R. M. (2002) J. Biol. Chem., 277:37863-37870). Reaction mixtures containing PCPS (50 μM), DAPA (3 μM), prothrombin (1.4 μM), and either rFVa or the indicated FV-810 derivatives were incubated with B-domain peptides (0-10 μM) in assay buffer. […] Prothrombin activation was determined using the chromogenic thrombin substrate 52238 as described (Camire, R. M. (2002) J. Biol. Chem., 277:37863-37870).

normal human plasma = assay: Clot time of normal human plasma; format: biochemical; settings: increasing amounts of FVBR
FXa/FV-DT [3] = target: T4, FXa/FV-DT; assay: Binding of fluorescently labeled FXa to FV-DT on liposomes (anisotropy); settings: on PCPS liposomes
FV-810 [4] = target: T1, FV-810; assay: Fluorescence anisotropy, direct binding of OG488-BR to FV-810; settings: fluorescently labeled FVBR
FV-810^R709Q = target: T5, FV-810^R709Q (Homo sapiens, UniProt P12259, DEL839-1519/R737Q); assay: Clotting assay with FV-810^R709Q; format: biochemical; settings: prior to thrombin cleavage
T5 construct: amino acids 1-28 are a signal peptide that is cleaved and numbering begins at residue 29; made in house
T5 sequence (P12259 with tags, fused parts or gaps R737Q/DEL839-1519): as the sequence (P12259 with tags, fused parts or gaps DEL839-1519) above, with R709Q counted along it
Procedure: as §1, §2

FV-810 [5] = target: T1, FV-810; assay: Displacement of OG488-BR from preformed OG488-BR/FV-810 complex (fluorescence anisotropy); format: binding; settings: 30 nM OG488-BR, 20 nM FV-810, 50 μM PCPS; for Kd: 25° C.
[6] = listed as FV basic region peptide

SRAWGESTPLANKPGKQSGHPKFPRVRHKSLQVRQDGGKSRLKKSQFLIKTRKKKKEK [FVBR]
inhibition of clotting activity of FV-810 (FV-DT) (FV-810 [1]): inhibited | inhibition of clotting activity of FV-810 (FV-DT) (FV-810 [1]; listed as BR peptide): similarly inhibited | inhibition of FV-810 (FV-810 [1]; prior to thrombin cleavage): potently inhibited | inhibition of FV-810^QQ (FV-810^QQ; following incubation with thrombin): still inhibited | inhibition of FV-810^QQ (FV-810^QQ; prior to thrombin cleavage): potently inhibited | proteolytic activation of FV by thrombin, cleavage at Arg1545 (plasma-derived Factor V): delays the proteolytic activation; also recorded: delayed cleavage | thrombin cleavage of FV at Arg709 (plasma-derived Factor V): proceeds normally | inhibition of prothrombin activation with FV-810 (FV-DT) (FXa/FV-DT [2]): inhibiting; also recorded: inhibition | inhibition of prothrombin activation with FV-810 (FV-DT) (FXa/FV-DT [2]; listed as BR peptide): effectively inhibited | clot time of normal plasma (normal human plasma): prolongs the clot time | disruption of FXa binding to FV-DT (FXa/FV-DT [3]): impaired | disruption of FXa binding to FV-DT (FXa/FV-DT [3]; [6]): disrupts binding | direct binding to FVDT (FV-810 [4]): direct binding | direct binding to FVDT (FV-810 [4]; [6]): binds FVDT | inhibition of FV-810^R709Q (FV-810^R709Q): potently inhibited | stoichiometry n, unlabeled BR (FV-810 [5]): 1.0±0.06 mol of BR/mol of FV-810 | Kd (FV-810 [5]; assuming stoichiometry of 1 mol of FV-810/mol of BR peptide): 2.2 ± 0.2 nM | Kd (FV-810 [5]; n fitted): 2.1 ± 0.2 nM

Source: patent US10239933B2, “Compositions and methods for modulating thrombin generation” (The Children's Hospital of Philadelphia, priority 2011, dated 2019)
